Converted amounts (≈) assume the structure as drawn.
Tests used:
[1] = system: Aspergillus fumigatus IFO 8866; test: Antifungal activity, liquid doubling dilution method; type: cell-based; conditions: IFO8866, Sabouraud broth, 24 hr, 37° C., read-out: minimum inhibitory concentration (MIC)
Protocol: (§1) Antifungal activity of PA-48153C was determined according to the liquid doubling dilution method using Sabouraud or YNB broth.

Candida albicans KE-2 = test: as above; type: cell-based; conditions: KE2, YNB broth, 48 hr, 37° C., read-out: minimum inhibitory concentration (MIC)
Protocol: as §1

CCD-19Lu = test: Inhibition of cell growth (MTT); type: cell-based; conditions: Human normal lung, MEM, 2 × 10^4 cells/well, 3-4 days, read-out: IC50 (concentration inhibiting 50% cell growth)
Protocol: (§2) Each cell defined in Table 3 was put in each well of a 96-well microtiter plate in one 0.1 ml-scale containing the defined number of cells and preincubated for one day under the same condition as in 1). PA-48153C (0.1 ml) was added to each well in such a manner that its final concentration was in a range from 0 to 5,000 ng/ml. After 3-4 days incubation, 25 μl of 6 mg/ml MTT [3-(4,5-dimethylthiazol-2-yl)-2,5-diphenyltetrazolium bromide] (Sigma) was added to each well. After further incubation at 37° C. for 4 hr under the same condition, formazan generated therein was dissolved by adding 50 μl of 20% […] (SDS) in 0.02N HCl and allowing to stand at 37° C. for 24 hr. An amount of formazan generated in proportion to the number of live cells was determined according to optical density analyzed by an immunoreader (Sanko Junyaku k.k.) equipped with a 570 nm-filter (reference to J. Immunol. Methods 65, 55-63 (1983)). IC50 (concentration inhibiting 50% cell growth) was calculated from the correlativity of PA-48153C concentration with optical density.

P388 = test: Inhibition of cell growth (MTT); type: cell-based; conditions: Mouse leukemia, RPMI 1640, 5 × 10^2 cells/well, 3-4 days, read-out: IC50 (concentration inhibiting 50% cell growth)
Protocol: as §2

Solubility = type: physicochemical
[2] = system: allo-MLR (C3H/HeN mouse splenic mononuclear cells with C57BL/6 mouse splenic mononuclear cells); test: Allogenic mixed lymphocyte reaction (allo-MLR) in vitro, [3H]-TdR incorporation; type: cell-based; conditions: 144 h, 6 days, read-out: IC50 value inhibiting allo MLR
Protocol: Induction and assay of allo-MLR were performed in 96 well microtiter plates. C3H/HeN (H-2^k) mouse splenic mononuclear cells (5×10^5 cells in 0.1 ml of RPMI/FCS) were mixed with an equal volume of mitomycin C-treated (50 μg/ml, 37° C., 30 min, washed 3 times with RPMI 1640) C57BL/6 (H-2^b) mouse splenic mononuclear cells (5×10^5 cells) and incubated with RPMI/FCS in 96 well microtiter plate for 6 days under the same condition as described in 1). PA-48153C was added to the allo-MLR in such a manner that its final concentration was not more than 100 ng/ml. Eighteen hours before harvesting, 0.5 μCi of [^3 H]-TdR was pulsed to each well. The cells were harvested and assayed for allo-MLR by their ability to uptake [^3 H]-TdR incorporation.

tumor cells = test: Inhibition of cell growth (MTT), summary over tumor cells; type: cell-based
Protocol: as §2

P388/ADM = test: Inhibition of cell growth (MTT); type: cell-based, Mouse
Protocol: as §2

[3] = system: Con A reaction of mouse splenic cell; test: Effect on mitogenic responses (Con A reaction of mouse splenic mononuclear cells, [3H]-TdR incorporation); type: cell-based, C3H/HeN mice
Protocol: Splenic mononuclear cells (5×10^5) from C3H/HeN mice were suspended in 0.2 ml of RPMI 1640 medium containing 10% fetal bovine serum and 5×10^-5 M 2-mercaptoethanol (RPMI/FCS) and plated 96-well microtiter plates. The cells were cultured with 5 μg/ml of Concanavalin A (Con A; Type IV, Sigma Chemical Co.) for 72 hr at 37° C. in a humidified atmosphere of 5% carbon dioxide and 95% of air. PA-48153C was dissolved in dimethyl sulfoxide (DMSO) and added to the mitogenic response. The final concentration was not more than 100 ng/ml. Eighteen hours before harvesting, 0.5 μCi of tritiated thymidine ([^3 H]-TdR) was added to each well. The cells were harvested onto glass filter paper using a semi-automated multiple cell harvester, and [^3 H]-TdR incorporation was determined by liquid scintillation counter.

LU-99 = test: Inhibition of cell growth (MTT); type: cell-based, Human
Protocol: as §2

MIC [1]: 12.5 µg/mL (≈ 38.5 µM)
MIC (Candida albicans KE-2): 50 µg/mL (≈ 154 µM)
IC50 (P388): 1.8 ng/mL (≈ 0.00555 µM)
Solubility in water (Solubility; water): insoluble in water
IC50 [2]: 3.1 ng/mL (≈ 0.00955 µM)
IC50 (P388/ADM; P388/ADM, Mouse leukemia (multi-resistant carcinoma), RPMI 1640, 5 × 10^2 cells/well, 3-4 days, read-out: IC50 (concentration inhibiting 50% cell growth)): 4.8 ng/mL (≈ 0.0148 µM)
IC50 ([3]; Mus musculus, Con A 5 μg/ml, 72 hr): 4.8 ng/mL (≈ 0.0148 µM)
SMILES: C/C=C/C[C@H](C)[C@@H](OC)[C@@H](C)[C@H](O)C[C@H]1OC(=O)C=C[C@H]1CC (relative stereo) [PA-48153C, (5R*,6R*)-5-ethyl-5,6-dihydro-6-[(E)-(2R*,3S*,4R*,5S*)-2-hydroxy-4-methoxy-3,5-dimethyl-7-nonenyl]-2H-pyran-2-one]
IC50 (CCD-19Lu): > 5 µg/mL
Solubility in organic solvents (Solubility; n-hexane, ethyl acetate, chloroform, methanol): soluble in n-hexane, ethyl acetate, chloroform, methanol
growth inhibition of tumor cells (in words) (tumor cells): strongly inhibits the growth of tumor cells
growth inhibition of multi-resistant carcinoma P388/ADM (in words) (P388/ADM): strongly inhibits the growth of multi-resistant carcinoma P388/ADM
inhibition at 0.0017 µg/mL ([3]; Mus musculus, PA-48153C 1.7 ng/ml, Con A 5 μg/ml, 72 hr): 83.8%
inhibition at 0.0056 µg/mL ([3]; Mus musculus, PA-48153C 5.6 ng/ml, Con A 5 μg/ml, 72 hr): 61.6%
inhibition at 0.05 µg/mL ([3]; Mus musculus, PA-48153C 50.0 ng/ml, Con A 5 μg/ml, 72 hr): 94%
Radioactivity cpm ± SD ([3]; PA-48153C 1.7 ng/ml, Con A 5 μg/ml, 72 hr): 10,200 ± 451 cpm
Radioactivity cpm ± SD ([3]; PA-48153C 5.6 ng/ml, Con A 5 μg/ml, 72 hr): 24,200 ± 883 cpm
Radioactivity cpm ± SD ([3]; PA-48153C 50.0 ng/ml, Con A 5 μg/ml, 72 hr): 3,780 ± 141 cpm
inhibition of proliferative response to Con A (in words) ([3]; splenic mononuclear cell from normal mice): inhibited the proliferative response of splenic mononuclear cell from normal mice to Con A in a dose-dependent fashion
IC50 (LU-99; Lu-99, Human giant-cell carcinoma of lung, RPMI 1640, 2 × 10^3 cells/well, 3-4 days, read-out: IC50 (concentration inhibiting 50% cell growth)): 2.2 ng/mL (≈ 0.00678 µM)
IC50 to normal lung cell CCD-19Lu relative to that to giant-cell carcinoma of lung Lu-99 (LU-99; ratio CCD-19Lu / Lu-99): at least 2,500 times

— US5314911A, “Immunosuppressive agent” (Shionogi Seiyaku Kabushiki Kaisha, priority 1992, dated 1994)
